Assay results from article PMC8689140 (Frontiers in Pharmacology, 2021).

Tests used:
CYP2C9 = system: T1, CYP2C9; experiment: P450 phenotyping, chemical inhibitors in HLMs, CYP2C9; assay type: in vitro ADME, human; conditions: CYP2C9 probe substrate, 5 µM, specific inhibitor
T1 construct: tissue Corning Co., Ltd (Shanghai, China); host or cells: human liver microsomes
Method: (§1) According to the result of metabolite identification, three metabolites were selected as the targets for metabolic phenotyping. Seven CYP isozymes (CYP1A2, CYP2B6, CYP2C8, CYP2C9, CYP2C19, CYP2D6, and CYP3A4) were investigated using two kinds of methods: chemical inhibitors in human liver microsomes (HLMs) method (Experiment 1) and rhCYP isozymes method (Experiment 2).
Experiment 1: HLMs were thawed on ice and diluted in100 mM sodium phosphate buffer (pH 7.4) containing 3 mM magnesium chloride. […] After 10 min of preincubation at 37°C, the reactions were initiated by adding 20 µL of NADPH (10 mM) and then incubated at 37 °C in a shaking water bath for 30 min. The samples were prepared in triplicates. The reactions were terminated by adding 600 µL of ice-cold acetonitrile and stored at −20°C until analysis. Control samples without NADPH and 0-time point samples were included. As positive controls, the probe substrates of each P450 isozyme under the same conditions were tested, and specific inhibitors was added. Next, the samples were centrifuged at 13,000 rpm for 10 min, the supernatants were determined by LC–MS/MS.

rhCYP CYP2C9 = system: T2, rhCYP CYP2C9; experiment: P450 phenotyping, rhCYP isozymes, CYP2C9; assay type: in vitro ADME, human; conditions: rhCYP2C9 probe substrate, 1 µM
T2 construct: purchased Corning Co., Ltd (Shanghai, China)
From the text: as §1
Experiment 2: Each rhCYP isozyme was thawed and diluted as above method. As positive controls, the probe substrates of each P450 isozyme were tested under the same conditions. […] Vx ([…]) is the production rate of metabolites for each rhCYP isozyme.

O=C(O)Cc1ccccc1Nc1c(Cl)cccc1Cl [Diclofenac]
%Inhibation in HLM (CYP2C9): 89.9%
CL int in rhCYP (rhCYP CYP2C9): 6.15 µL/min/pmol
